Target: ATR kinase (full-length ATR) (Homo sapiens (Human), UniProt Q13535)
Test: ATR inhibition assay (radioactive-phosphate incorporation)
Assay type: biochemical
Conditions: Ki(app), 5 nM full-length ATR, 10 μM ATP, 25° C.
Outline: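 Ki(app) was fitted by non-linear regression to background-corrected initial rates. Full-length ATR (5 nM) phosphorylated 800 μM peptide using 10 μM [γ-33P]ATP at 25° C in Tris/HCl pH 7.5 buffer with MgCl2, DTT and 7% DMSO. After 10-minute compound pre-incubation and 24-hour reaction, phosphocellulose filters were scintillation counted.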

Chain of ATR kinase (full-length ATR) (Q13535 whole entry): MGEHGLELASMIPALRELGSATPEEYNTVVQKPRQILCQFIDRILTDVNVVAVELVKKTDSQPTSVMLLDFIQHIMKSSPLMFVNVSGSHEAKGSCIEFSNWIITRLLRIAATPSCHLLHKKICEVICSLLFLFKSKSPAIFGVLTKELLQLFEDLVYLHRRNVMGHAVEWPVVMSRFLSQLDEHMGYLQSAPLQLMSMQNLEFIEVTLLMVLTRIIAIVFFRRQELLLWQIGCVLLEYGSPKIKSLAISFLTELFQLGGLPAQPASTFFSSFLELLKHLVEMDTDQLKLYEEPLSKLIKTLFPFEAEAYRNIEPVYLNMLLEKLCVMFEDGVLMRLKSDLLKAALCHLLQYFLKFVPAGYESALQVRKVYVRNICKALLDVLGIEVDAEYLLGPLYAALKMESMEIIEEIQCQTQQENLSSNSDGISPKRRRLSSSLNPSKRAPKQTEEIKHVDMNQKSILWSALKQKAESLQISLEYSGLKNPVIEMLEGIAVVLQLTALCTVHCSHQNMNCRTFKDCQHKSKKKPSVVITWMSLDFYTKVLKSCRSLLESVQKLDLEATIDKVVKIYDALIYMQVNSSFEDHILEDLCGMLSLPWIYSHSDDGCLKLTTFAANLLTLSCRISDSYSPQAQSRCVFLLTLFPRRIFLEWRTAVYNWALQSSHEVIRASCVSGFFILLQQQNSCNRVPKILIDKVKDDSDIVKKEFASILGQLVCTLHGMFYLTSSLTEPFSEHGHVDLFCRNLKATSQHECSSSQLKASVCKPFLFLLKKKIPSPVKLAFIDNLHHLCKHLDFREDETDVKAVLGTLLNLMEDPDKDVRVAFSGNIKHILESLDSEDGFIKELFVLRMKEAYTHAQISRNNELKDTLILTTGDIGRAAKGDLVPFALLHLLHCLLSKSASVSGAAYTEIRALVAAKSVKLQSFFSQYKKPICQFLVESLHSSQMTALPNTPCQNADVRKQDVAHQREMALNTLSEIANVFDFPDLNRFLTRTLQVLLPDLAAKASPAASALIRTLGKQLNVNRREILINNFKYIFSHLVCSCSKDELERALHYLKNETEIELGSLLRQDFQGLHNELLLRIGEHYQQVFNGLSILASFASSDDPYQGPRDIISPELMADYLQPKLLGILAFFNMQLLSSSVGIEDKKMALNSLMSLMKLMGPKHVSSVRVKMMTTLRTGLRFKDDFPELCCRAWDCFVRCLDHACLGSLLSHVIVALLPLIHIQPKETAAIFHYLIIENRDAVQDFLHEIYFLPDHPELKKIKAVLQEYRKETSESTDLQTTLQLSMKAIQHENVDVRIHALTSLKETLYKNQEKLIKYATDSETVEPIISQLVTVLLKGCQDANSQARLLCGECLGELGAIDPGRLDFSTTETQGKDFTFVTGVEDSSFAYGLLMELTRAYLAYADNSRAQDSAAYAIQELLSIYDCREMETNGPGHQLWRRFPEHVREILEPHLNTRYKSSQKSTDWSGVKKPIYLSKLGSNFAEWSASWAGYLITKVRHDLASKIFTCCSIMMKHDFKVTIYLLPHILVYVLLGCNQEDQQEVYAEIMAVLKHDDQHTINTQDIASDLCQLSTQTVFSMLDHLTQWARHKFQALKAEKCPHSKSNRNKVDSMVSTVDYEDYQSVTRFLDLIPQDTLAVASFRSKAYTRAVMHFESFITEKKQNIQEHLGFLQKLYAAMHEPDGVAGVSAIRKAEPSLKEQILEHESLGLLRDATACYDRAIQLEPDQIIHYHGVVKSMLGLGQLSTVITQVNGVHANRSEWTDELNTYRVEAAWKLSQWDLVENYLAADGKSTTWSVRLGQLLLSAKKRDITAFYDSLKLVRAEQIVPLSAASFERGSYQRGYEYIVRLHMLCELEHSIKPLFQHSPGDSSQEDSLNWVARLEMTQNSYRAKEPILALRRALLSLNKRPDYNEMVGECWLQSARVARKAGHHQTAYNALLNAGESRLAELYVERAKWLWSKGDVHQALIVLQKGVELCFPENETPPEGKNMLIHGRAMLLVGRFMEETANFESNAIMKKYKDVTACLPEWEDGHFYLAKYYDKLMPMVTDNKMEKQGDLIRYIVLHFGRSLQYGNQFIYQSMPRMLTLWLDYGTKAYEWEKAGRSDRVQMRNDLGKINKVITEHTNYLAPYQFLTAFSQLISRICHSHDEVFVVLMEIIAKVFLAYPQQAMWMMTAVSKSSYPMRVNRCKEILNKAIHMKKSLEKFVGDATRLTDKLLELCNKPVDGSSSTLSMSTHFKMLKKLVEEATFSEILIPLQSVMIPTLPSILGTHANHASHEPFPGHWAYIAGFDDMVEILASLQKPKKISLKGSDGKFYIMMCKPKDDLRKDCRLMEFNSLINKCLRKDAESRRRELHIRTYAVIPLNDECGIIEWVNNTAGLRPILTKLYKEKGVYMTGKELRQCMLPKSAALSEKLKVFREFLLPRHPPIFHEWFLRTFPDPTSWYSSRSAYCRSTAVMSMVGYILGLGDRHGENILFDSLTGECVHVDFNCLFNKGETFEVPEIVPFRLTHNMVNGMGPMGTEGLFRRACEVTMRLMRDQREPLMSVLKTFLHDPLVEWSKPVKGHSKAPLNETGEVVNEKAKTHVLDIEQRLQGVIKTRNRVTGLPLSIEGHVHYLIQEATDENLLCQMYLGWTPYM

Structure (SMILES)	Ki
CN1CCN(c2c(F)cncc2NC(=O)c2c(N)nn3cc(F)cnc23)CC1=O [I-N-212, 2-amino-6-fluoro-N-(5-fluoro-4-(4-methyl-3-oxopiperazin-1-yl)pyridin-3-yl)pyrazolo[1,5-a]pyrimidine-3-carboxamide]	10 to 1000 nM
Nc1nn2cc(Cl)cnc2c1C(=O)Nc1cnccc1N1CCC(N2CCC23COC3)CC1 [I-N-109, N-(4-(4-(6-oxa-1-azaspiro[3.3]heptan-1-yl)piperidin-1-yl)pyridin-3-yl)-2-amino-6-chloropyrazolo[1,5-a]pyrimidine-3-carboxamide]	10 to 1000 nM
Cc1nc(C(F)(F)F)cn1-c1ccncc1NC(=O)c1c(N)nn2cc(F)cnc12 [I-N-30, 2-amino-6-fluoro-N-(4-(2-methyl-4-(trifluoromethyl)-1H-imidazol-1-yl)pyridin-3-yl)pyrazolo[1,5-a]pyrimidine-3-carboxamide]	10 to 1000 nM
Nc1nn2cc(F)cnc2c1C(=O)Nc1cncc(F)c1N1CC(=O)N2CCCC2C1 (stereo not shown) [I-N-232, 2-amino-6-fluoro-N-(5-fluoro-4-(4-oxohexahydropyrrolo[1,2-a]pyrazin-2(1H)-yl)pyridin-3-yl)pyrazolo[1,5-a]pyrimidine-3-carboxamide]	10 to 1000 nM
Nc1nn2cc(F)cnc2c1C(=O)Nc1cncc(F)c1C1=CCN(C2COC2)CC1 [I-C-12, 2-amino-6-fluoro-N-(5-fluoro-1′-(oxetan-3-yl)-1′,2′,3′,6′-tetrahydro-[4,4′-bipyridin]-3-yl)pyrazolo[1,5-a]pyrimidine-3-carboxamide]	10 to 1000 nM
CC(C)N1CCN(c2ccncc2NC(=O)c2c(N)nn3cc(F)cnc23)CC1 [I-N-4, 2-amino-6-fluoro-N-(4-(4-isopropylpiperazin-1-yl)pyridin-3-yl)pyrazolo[1,5-a]pyrimidine-3-carboxamide]	10 to 1000 nM
Cc1ccncc1NC(=O)c1c(N)nn2cc(F)cnc12 [I-C-4, 2-amino-6-fluoro-N-(4-methylpyridin-3-yl)pyrazolo[1,5-a]pyrimidine-3-carboxamide]	10 to 1000 nM
CN1CCN(c2ccncc2NC(=O)c2c(N)nn3cc(Cl)cnc23)CC1CO (stereo not shown) [I-N-63, 2-amino-6-chloro-N-(4-(3-(hydroxymethyl)-4-methylpiperazin-1-yl)pyridin-3-yl)pyrazolo[1,5-a]pyrimidine-3-carboxamide]	10 to 1000 nM
Nc1nn2cc(F)cnc2c1C(=O)Nc1cnccc1N1CCN2CCOC[C@@H]2C1 [I-N-115, (S)-2-amino-6-fluoro-N-(4-(hexahydropyrazino[2,1-c][1,4]oxazin-8(1H)-yl)pyridin-3-yl)pyrazolo[1,5-a]pyrimidine-3-carboxamide]	10 to 1000 nM
Nc1nn2cc(F)cnc2c1C(=O)Nc1cnccc1N1CCC(S(=O)(=O)N2CCOCC2)CC1 [I-N-170, 2-amino-6-fluoro-N-(4-(4-(morpholinosulfonyl)piperidin-1-yl)pyridin-3-yl)pyrazolo[1,5-a]pyrimidine-3-carboxamide]	10 to 1000 nM
COc1cncc(NC(=O)c2c(N)nn3cc(F)cnc23)c1-c1cccnc1 [I-C-82, 2-amino-6-fluoro-N-(5′-methoxy-[3,4′-bipyridin]-3′-yl)pyrazolo[1,5-a]pyrimidine-3-carboxamide]	10 to 1000 nM
Nc1nn2cc(F)cnc2c1C(=O)Nc1cncc(F)c1N1CCN(S(=O)(=O)C2CCOCC2)CC1 [I-N-158, 2-amino-6-fluoro-N-(5-fluoro-4-(4-((tetrahydro-2H-pyran-4-yl)sulfonyl)piperazin-1-yl)pyridin-3-yl)pyrazolo[1,5-a]pyrimidine-3-carboxamide]	10 to 1000 nM
Nc1nn2cc(Cl)cnc2c1C(=O)Nc1cnccc1N1CCC(N2CCn3cncc3C2)CC1 [I-N-101, 2-amino-6-chloro-N-(4-(4-(5,6-dihydroimidazo[1,5-a]pyrazin-7(81-1)-yl)piperidin-1-yl)pyridin-3-yl)pyrazolo[1,5-a]pyrimidine-3-carboxamide]	10 to 1000 nM
Nc1nn2cc(F)cnc2c1C(=O)Nc1cnccc1Oc1cccnc1 [I-O-7, 2-amino-6-fluoro-N-(4-(pyridin-3-yloxy)pyridin-3-yl)pyrazolo[1,5-a]pyrimidine-3-carboxamide]	10 to 1000 nM
Nc1nn2cc(F)cnc2c1C(=O)Nc1cnccc1N1CCC(C(=O)N2CC(F)C2)CC1 [I-G-82, 2-amino-6-fluoro-N-(4-(4-(3-fluoroazetidine-1-carbonyl)piperidin-1-yl)pyridin-3-yl)pyrazolo[1,5-a]pyrimidine-3-carboxamide]	10 to 1000 nM
Nc1nn2cc(F)cnc2c1C(=O)Nc1cncc(Cl)c1N1CCC(O)C1 (stereo not shown) [I-N-284, 2-amino-N-(5-chloro-4-(3-hydroxypyrrolidin-1-yl)pyridin-3-yl)-6-fluoropyrazolo[1,5-a]pyrimidine-3-carboxamide]	10 to 1000 nM
Nc1nn2cc(Cl)cnc2c1C(=O)Nc1cnccc1N1CCNCC1 [I-N-88, 2-amino-6-chloro-N-(4-(piperazin-1-yl)pyridin-3-yl)pyrazolo[1,5-a]pyrimidine-3-carboxamide]	10 to 1000 nM
CN1CCOCC1C(=O)N1CCN(c2c(F)cncc2NC(=O)c2c(N)nn3cc(F)cnc23)CC1 (stereo not shown) [I-N-227, 2-amino-6-fluoro-N-(5-fluoro-4-(4-(4-methylmorpholine-3-carbonyl)piperazin-1-yl)pyridin-3-yl)pyrazolo[1,5-a]pyrimidine-3-carboxamide]	10 to 1000 nM
Cc1cncc(NC(=O)c2c(N)nn3cc(F)cnc23)c1N1CCN(C2COC2)CC1 [I-N-16, 2-amino-6-fluoro-N-(5-methyl-4-(4-(oxetan-3-yl)piperazin-1-yl)pyridin-3-yl)pyrazolo[1,5-a]pyrimidine-3-carboxamide]	10 to 1000 nM
Nc1nn2cc(F)cnc2c1C(=O)Nc1cnccc1N1CCN(C2CCOCC2)CC1 [I-N-11, 2-amino-6-fluoro-N-(4-(4-(tetrahydro-2H-pyran-4-yl)piperazin-1-yl)pyridin-3-yl)pyrazolo[1,5-a]pyrimidine-3-carboxamide]	10 to 1000 nM
N#CCc1cnc2c(C(=O)Nc3cnccc3N3CCCCCC3)c(N)nn2c1 [I-N-79, 2-amino-N-(4-(azepan-1-yl)pyridin-3-yl)-6-(cyanomethyl)pyrazolo[1,5-a]pyrimidine-3-carboxamide]	10 to 1000 nM
N#CCc1cnc2c(C(=O)Nc3cnccc3N3CCC(N)CC3)c(N)nn2c1 [I-N-2, 2-amino-N-(4-(4-aminopiperidin-1-yl)pyridin-3-yl)-6-(cyanomethyl)pyrazolo[1,5-a]pyrimidine-3-carboxamide]	10 to 1000 nM
Nc1nn2cc(F)cnc2c1C(=O)Nc1cnccc1OC1CCOC1 (racemic) [I-O-15, (R,S)-2-amino-6-fluoro-N-(4-((tetrahydrofuran-3-yl)oxy)pyridin-3-yl)pyrazolo[1,5-a]pyrimidine-3-carboxamide]	10 to 1000 nM
Nc1nn2cc(F)cnc2c1C(=O)Nc1cnccc1-c1ccc(C(=O)N2CCN(C3COC3)CC2)cc1 [I-C-49, 2-amino-6-fluoro-N-(4-(4-(4-(oxetan-3-yl)piperazine-1-carbonyl)phenyl)pyridin-3-yl)pyrazolo[1,5-a]pyrimidine-3-carboxamide]	10 to 1000 nM
CN1CCN(C(=O)c2ccc(-c3ccncc3NC(=O)c3c(N)nn4cc(F)cnc34)cn2)CC1 [I-C-19, 2-amino-6-fluoro-N-(6-(4-methylpiperazine-1-carbonyl)-[3,4′-bipyridin]-3′-yl)pyrazolo[1,5-a]pyrimidine-3-carboxamide]	10 to 1000 nM

From patent publication US10392391B2 (Vertex Pharmaceuticals Incorporated, priority 2012, dated 2019)
